According to article PMC6598400 (Frontiers in Immunology, 2019):
Like-named read-outs stand apart in the source and are kept apart here.

Tests used:
[1] = tested on: IL-8 production in U937 cells infected with influenza A virus A/PuertoRico/8/1934; assay: IL-8 production in influenza-infected U937 cells (AlphaLISA); type: cell-based, human; details: read-out: EC50 IL-8
[2] = tested on: IP-10 production in U937 cells infected with influenza A virus A/PuertoRico/8/1934; assay: cells; type: cell-based
[3] = tested on: MCP-1 production in U937 cells infected with influenza A virus A/PuertoRico/8/1934; assay: MCP-1 production in influenza-infected U937 cells (AlphaLISA); type: cell-based, human; details: read-out: EC50 MCP-1
in vitro = details: human
[4] = tested on: influenza A virus (A/PR/8/34); assay: Mouse lethal influenza model: survival and body weight; type: in vivo, BALB/c mice; details: for Body weight loss: started 2 h after infection; for Survival rate: started 2 h after infection with 500 TCID50, monitored to day 20
[5] = tested on: influenza A virus (A/PR/8/34); assay: Inflammatory cell infiltration in lungs/BALF of infected mice (histology, flow cytometry); type: in vivo, BALB/c mice; details: 15 mg/kg oral from day 3
Method: BALF samples were washed with FACS buffer (10% BSA in PBS). Red blood cells were lysed using ammonium chloride and […] were seeded into a 96-well U-bottom plate. Cells were pre-incubated with anti-FcgRIII/II (Fc block) in FACS buffer before a 30-min incubation with the following fluorochrome-labeled antibodies (Biolegend): PE-Cy7-conjugated Ly6C (clone HK1.4, dilution 1:200), PE-conjugated CD11b (clone M1/70, dilution 1:200), APC-conjugated Ly6G (clone 1A8, dilution 1:200), and FITC-conjugated CD11c (clone N418, dilution 1:100). Cells were washed with phosphate-buffered saline twice and counterstained with 7AAD (Biolegend) to differentiate apoptotic and dead cells and then analyzed using a LSR Fortessa (Becton Dickinson).
Whole lungs were perfused with 10% neutral buffered formaldehyde in situ. Tissues were then fixed overnight in 10% neutral buffered formaldehyde, embedded in paraffin, and sectioned. Lung specimens were stained with hematoxylin and eosin and then subjected to gross and microscopic pathologic analysis.
Mice were infected as described in Figure 2. […] (A) Hematoxylin & eosin-stained mouse lung sections (scale bar 200 μm) harvested at day 7 post-infection. (B) BALFs were collected from placebo and ponatinib-treated mice (n = 3 per group at each time point) starting day 3 post-infection to monitor total cell counts (mean ± SEM) on days 5 and 7 post-infection. The data are representative of at least three independent experiments.*p < 0.05; **p < 0.01.

[6] = tested on: pro-inflammatory cytokines in BALF; parameters: species or system BALB/c mice; details: mouse, in vivo
[7] = tested on: influenza A virus (A/PR/8/34); assay: Viral titers in BALF of infected mice (TCID50 assay using MDCK cells); type: in vivo, BALB/c mice
[8] = tested on: PR8 strain of influenza virus; assay: In vitro antiviral assays in U937, A549 cells and murine PCLS; type: cell-based
[9] = tested on: MCP-1, KC, IP-10 and IL-6 production in PCLS infected with influenza; assay: Cytokine production in influenza-infected murine precision-cut lung slices (PCLS); type: cell-based, mouse
phospho-p38 = type: cell-based, human
IFN-α = IFN-α levels in influenza virus-infected U937 cells; type: cell-based, human
[10] = cited from earlier work
[11] = Homo sapiens, U-937, PR8 MOI = 0.1, 48 h
[12] = U937 cells, PR8 MOI = 0.1, 48 h

## Cc1ccc2nc(NCCN)c3ncc(C)n3c2c1 [BMS-345541]
[1]; Homo sapiens, U-937, 48 h
  EC50: 11.7 µM
[2]; [11]
  EC50: 4.6 µM
[3]; Homo sapiens, U-937, 48 h
  EC50: 3.6 µM
In vitro
  CC50: 3.9 µM

## Cc1cn(-c2cc(NC(=O)c3ccc(C)c(Nc4nccc(-c5cccnc5)n4)c3)cc(C(F)(F)F)c2)cn1 [Nilotinib]
[1]; Homo sapiens, U-937, 48 h
  EC50: 0.4 µM
[2]; [11]
  EC50: 1.1 µM
[3]; Homo sapiens, U-937, 48 h
  EC50: 1.5 µM
In vitro
  CC50: 5.4 µM

## CC(C)(C)n1nc(-c2ccc(Cl)cc2)c2c(N)ncnc21 [PP2]
[1]; [12]
  EC50: > 100 µM
[2]; PR8 MOI = 0.1, 48 h
  EC50: 3.3 µM
[3]; [12]
  EC50: 10.4 µM
U937 cells
  CC50: 40.3 µM

## Cc1ccc(C(=O)Nc2ccc(CN3CCN(C)CC3)c(C(F)(F)F)c2)cc1C#Cc1cnc2cccnn12 [Ponatinib]
[1]; Homo sapiens, U-937, 48 h
  EC50: 0.3 µM
[3]; Homo sapiens, U-937, 48 h
  EC50: 0.4 µM
[4]; 5 mg/kg/d oral
  Body weight loss: improvement in body weight loss decreased significantly compared to the middle dose group
  Survival rate: 20%
[4]; 15 mg/kg oral, started on days 1, 2, 3 or 4 post-infection until day 6
  Body weight loss, delayed administration: slowed down significantly
[4]; 15 mg/kg oral, started on days 3 and 4 post-infection until day 6
  Survival rate, delayed administration: higher survival rates than those treated starting on days 1 and 2
[4]; 15 mg/kg/d oral
  Survival rate: 50%
[4]; 15 mg/kg/d oral, days 3 to 5
  Body weight loss: least decline in body weight
[4]; 25 mg/kg/d oral
  Body weight loss: improvement of body weight loss was not observed at all
  Survival rate: 30%
[5]; day 7 post-infection, vs placebo
  Inflammatory infiltrates in the lungs (histology): fewer inflammatory infiltrates
[5]; days 5 and 7 post-infection
  Infiltration of neutrophils in BALF: greatly reduced
  Monocyte infiltration in BALF: not affected
[6]
  Concentrations of IL-6, IL-10, MCP-1, Eotaxin, IL-12 (p40) and MIP-1β in BALF: not affected
  Expression levels of cytokines and chemokines in BALF (of 17 increased by infection): 14 cytokines and chemokines were attenuated
  IFN-α levels in BALF vs placebo: higher on day 3 and lower on day 5 post-infection
  Inhibition of cytokines in BALF except IL-6 and CCL-5, late phase: minor
  Inhibition of cytokines in BALF, early phase: no cytokines were inhibited
  Levels of Eotaxin, G-CSF, MCP-1, IL-10, TNF-α and IP-10 in BALF: elevated
  Levels of type I IFNs in BALF and serum: reduce the levels of type I IFNs
  Production of cytokines and chemokines in BALF: 8 cytokines and chemokines was reduced
[7]; 15 mg/kg oral from day 0 (simultaneously with infection)
  Viral titers in BALF vs placebo: significantly higher at day 3 and slightly higher at day 7
[7]; 15 mg/kg oral from day 3, days 5 and 7 post-infection
  Virus titers in BALF vs placebo: no difference
[8]
  Replication of PR8 influenza virus in vitro: did not inhibit the replication
[9]
  MCP-1, KC, IP-10 and IL-6 productions in infected PCLS: dose-dependently
phospho-p38
  Phosphorylation of p38: downregulated
IFN-α
  Levels of IFN-α: downregulate
[10]; clinical trials
  Median time to first onset of pancreatitis: 14 days
[10]; patients, long-term treatment
  Median time to initial onset of arterial occlusive events: 13.4 months

## CNC(=O)c1cc(Oc2ccc(NC(=O)Nc3ccc(Cl)c(C(F)(F)F)c3)cc2)ccn1 [Sorafenib]
[1]; Homo sapiens, U-937, 48 h
  EC50: 0.7 µM
[2]; [11]
  EC50: 3.7 µM
[3]; Homo sapiens, U-937, 48 h
  EC50: 5.8 µM
In vitro
  CC50: 20.7 µM

## Nc1cccc(-c2cc3c(Oc4cccc(O)c4)ncnc3[nH]2)c1 [TWS119]
[1]; [12]
  EC50: 9 µM
[2]; PR8 MOI = 0.1, 48 h
  EC50: 8.5 µM
[3]; [12]
  EC50: 8 µM
U937 cells
  CC50: 5.4 µM
